Data from US20090054414A1, “Rufinamide for the Treatment of Post-Traumatic Stress Disorder” (SYNOSIA THERAPEUTICS, priority 2007, published 2009).

Legend:
[1] = small scale placebo controlled study; cited from earlier work
[2] = system: male OF-1 “intruder” mice; assay: Intruder test (social withdrawal of intruder mice); type: in vivo, mouse; conditions: 1/3/10 mg/kg oral
Protocol: Rufinamide, a Na-channel blocker and anti-epileptic agent, and carbamazepine, an anticonvulsant employed to treat bipolar disorder, were given to male OF-1 “intruder” in oral-doses of 1/3/10 mg/kg, 1 hr before the animals were confronted with an individually-housed, aggressive, male OF-1 resident mouse. […] This increase in social investigation (sociotropic effect) was accompanied by a decrease in the frequency and duration of defensive ambivalence probably through competitive inhibition. No signs of motor stimulation were detected.
The Intruder test duplicates a territorial encounter between a territory holder (aggressive male) and a subordinate “intruder” mouse. […] In this test the intruders receive the treatment whereas the residents remain untreated. (Dixon, A. K., Huber, C., Lowe, D. J. Clin. Psychiatry. 55 (9) Suppl B, 4-7 (1994)). For purposes of this study, rufinamide and carbamazepine were given orally to intruder mice 1 hr before being introduced singly to aggressive residents using doses of ⅓ and 10 mg/kg.
Over 60 ethological elements describing the social and non-social behaviour of mice based on the ethogram originally proposed by Grant and Mackintosh (Grant, E. C. Mackintosh, J. H. Behaviour 21: 246-259 (1963) ) and classified according to 9 behavioural categories (Dixon, A. K., Huber, C., Fisch, H. U. Adv. Study. Behaviour. 19: 171-204 (1990)) form the rodent ethogram as used in this test (FIG. 3).

male OF-1 mice [3] = assay: half-enclosed platform (HEP) test; type: in vivo, mouse
From the text: Rufinamide and carbamazepine were compared in the half-enclosed platform (HEP) test. The test determines how drugs affect the exploratory behaviour of a mouse placed upon a novel, half-enclosed platform and gives information as to whether a drug is a stimulant, depressant or disinhibitory as with, for example the benzodiazepines which increase exploration of the platform. It is also useful for determining duration of action and dose-findings studies. The HEP is a further development of the simple elevated platform used by Kaesermann to assess anxiolytic properties of drugs (Ref. Käsermann H. P. (1986) Psychopharmacol. 89:31-37). In this study carbamazepine and rufinamide were tested in the same dose ranges i.e. 0.32/1/3.2 and 10 mg/kg p.o. of each were given to male OF-1 mice 1 hr before testing.
The ethogram used consists of 9 elements of exploratory behaviour two of which involve static postures i.e. immobility and stretched attend posture, the latter being an ambivalent element indicative of approach-avoidance conflict. These elements are immediately spontaneous and are not induced by either training or punishment procedures. Upright postures which are posturally demanding are useful to detect muscle relaxation e.g. rearing (FIG. 10).

[4] = system: male OF-1 “intruder” mice; conditions: earlier work (Dixon et al. 1994); cited from earlier work
male OF-1 mice [5] = conditions: general statement, no dose given; cited from earlier work
[6] = system: Male Rj: Wistar (Han) rats; assay: Vogel Conflict Test in the rat; type: in vivo; conditions: 64 mg/kg p.o., 60 minutes before the test; p<0.01
Protocol: Rufinamide was dispersed in 0.5% methylcellulose (MC) in distilled water. Vehicle was dispersed in 0.5% MC in distilled water. Clobazam was dispersed in 0.5% MC in distilled water. Methylcellulose (Sigma), batch n° 62K0144, white powder. Distilled water (Laboratoire Aguettant, sterile water for injectable preparation). All substances were stored in a dry, dark, controlled access area and maintained at a controlled ambient temperature (+18° C.). The vehicle suspensions were stored at +4° C.
The vehicle, test substance and reference substance were administered in a volume of 5 ml/kg body weight.
Male Rj: Wistar (Han) rats, 171-205 g body weight range were used. They were supplied by Elevage Janvier, 53940 Le Genest-Saint-Isle, France.
Animals were delivered to the laboratory at least 5 days before the experiment, during which time they were acclimatized to the laboratory conditions. They were housed in groups of 5 in macrolon cages (41×25×14 cm) on wood litter (Litalabo—SPPS, 95100 Argenteuil, France) with free access to food (Code 113-SAFE, 91360 Epinay-sur-Orge, France) and water until
Results in grouped data tables are presented as means followed by a ± sign and the standard error of the mean (s.e.m.) on the basis of 15 animals per group and as percent change from control. The statistical tests used are indicated with the method. All statistical calculations were performed using commercial software (Microsoft Excel®, GB Stat version 6.5), and verified test by test according to Porsolt & Partners Pharmacology's standardized internal procedures. All differences were considered statistically significant when the null hypothesis could be rejected at the risk α=0.05 or less.
Rats were deprived of water for 48 hours and were then placed individually into a transparent Plexiglas enclosure (15×32×34 cm) with a floor consisting of stainless steel bars (0.4 cm) spaced 1 cm apart. The back wall of the enclosure was made of opaque Plexiglass thereby concealing the observer from the experimental animal. In the centre of the opposite wall, 5 cm above the floor, a metal water spout protruded into the cage and was connected to one pole of a shock generator (Apelex: Type 011346). The other pole of the shock generator was connected to the metal grid floor.
The rat was left to explore until it found the water spout. Then, every time it drank, it received a slight electric shock (1.7 mA, 1 sec.) 2 seconds after it started lapping. The number of shocks received (punished drinkings) was counted during a 3 minute period.
15 rats were studied per group. The test was performed blind.
rufinamide was evaluated at 25, 50, 100 and 200 mg/kg, administered p.o. 60 minutes before the test, and compared with a vehicle control group.
Clobazam (64 mg/kg), administered under the same experimental conditions, was used as reference substance.
Data were analyzed by comparing treated groups with vehicle control using unpaired Student's t tests.

“intruder” rat = conditions: background statement on anxiolytic compounds; cited from earlier work

Structure (SMILES): Nc1nnc(-c2cccc(Cl)c2Cl)c(N)n1 [Lamotrigine]
- efficacy in treating post-traumatic stress disorder [1]: some efficacy

Structure (SMILES): NC(=O)N1c2ccccc2C=Cc2ccccc21 [carbamazepine]
- non-social (NS) behaviour, frequency ([2]; 1 hr before 6 minute encounter): did not change
- social investigation (SI) ([2]; 1 hr before 6 minute encounter, frequency and duration): dose-related increase
- defensive ambivalence ([2]; 1 hr before encounter): reduced but, because of large variation did not attain significance
- overall social contact (SIM): social investigation combined with mating behaviour ([2]; 1 hr before encounter): preserved the clear sociotropic action
- static-flight elements ([2]; 1 hr before encounter): dose-related reduction persisted but also did not attain significance
- total number of ethological elements performed in the 6 minute encounter ([2]; 1 hr before encounter): did not change
- exploratory activity (Sap,Go) in the open half of the platform (male OF-1 mice [3]; 0.32-10 mg/kg p.o., not attaining statistical significance): general tendency for increased exploratory activity
- overall ethological profile (male OF-1 mice [3]; 0.32/1/3.2 and 10 mg/kg p.o., 1 hr before testing): No major changes in behaviour occurred
- elements of stationary activity (male OF-1 mice [3]; at 10 mg/kg p.o.): significant decrease
- time spent in forward locomotion (Go) in the enclosed half (male OF-1 mice [3]; at 3.2 and 10 mg/kg p.o.): significant shortening
- social withdrawal in the Intruder test [4]: reverses social withdrawal

Structure (SMILES): CC(N)Cc1ccccc1 (stereo not shown) [amphetamine]
- behavioural disinhibition in the HEP test (male OF-1 mice [5]): not

Structure (SMILES): CN1C(=O)CC(=O)N(c2ccccc2)c2cc(Cl)ccc21 [Clobazam]
- number of shocks received (punished drinking), change vs vehicle control [6]: +64%

Structure (SMILES): CN1C(=O)CN=C(c2ccccc2)c2cc(Cl)ccc21 [diazepam]
- intruder's fear and tendency to scrutinize the resident partner (“intruder” rat): reduce the intruder's fear and to increase its tendency to scrutinize the resident partner
- behavioural disinhibition in the HEP test (male OF-1 mice [5]): demonstrable
